Results published in patent US11812767B2, “Beverage having Reb D and Reb M” (SUNTORY HOLDINGS LIMITED, priority 2018, dated 2023).

Tests used:
[1] = cited from earlier work
[2] = Degradation of Reb D and Reb M in phosphate buffer at 40° C. for 8 weeks, analysed by HPLC; assay type: physicochemical; details: for % Reb D degradation 2 weeks: 2 weeks at 40° C.; for % Reb D degradation 4 weeks: 4 weeks at 40° C.; for % Reb D degradation 6 weeks: 6 weeks at 40° C.; for % Reb D degradation 8 weeks: 8 weeks at 40° C.
Description: A study was carried out as follows, samples were prepared comprising 50 ppm, 150 ppm, 250 ppm and 400 ppm, of Reb D and samples with the following ratios of Reb D:Reb M 1:4, 1:1, 4:1 wherein the total concentration of the sample was 400 ppm. The samples were prepared in phosphate buffer and the pH was adjusted using phosphoric acid. Samples were prepared at the following pH; 2.0, 2.5, 3.0 and 3.5. These samples were incubated at 40° C. for 8 weeks. This incubation protocol should mimic the degradation at room temperature over 6 months. The amount of Reb D and Reb M in each sample at T=0 was calculated by HPLC this was then used to calculate the amount of remaining Reb M in each sample at each specified time point. Aliquots were taken at 2, 4, 6 and 8 weeks and analysed by HPLC to determine the degradation of Reb D and combinations of Reb D and Reb M over the 8 week study.

[3] = pH 2, Reb D 0.008 % w/w + Reb M 0.032 % w/w
[4] = pH 2, Reb D 0.02 % w/w + Reb M 0.02 % w/w
[5] = pH 2, Reb D 0.032 % w/w + Reb M 0.008 % w/w
[6] = pH 2.5, Reb D 0.005 % w/w alone
[7] = pH 2.5, Reb D 0.008 % w/w + Reb M 0.032 % w/w
[8] = pH 2.5, Reb D 0.015 % w/w alone
[9] = pH 2.5, Reb D 0.02 % w/w + Reb M 0.02 % w/w
[10] = pH 2.5, Reb D 0.025 % w/w alone
[11] = pH 2.5, Reb D 0.032 % w/w + Reb M 0.008 % w/w
[12] = pH 3, Reb D 0.008 % w/w + Reb M 0.032 % w/w
[13] = pH 3, Reb D 0.02 % w/w + Reb M 0.02 % w/w
[14] = pH 3, Reb D 0.032 % w/w + Reb M 0.008 % w/w
[15] = pH 3.5, Reb D 0.005 % w/w alone
[16] = pH 3.5, Reb D 0.008 % w/w + Reb M 0.032 % w/w
[17] = pH 3.5, Reb D 0.015 % w/w alone
[18] = pH 3.5, Reb D 0.02 % w/w + Reb M 0.02 % w/w
[19] = pH 3.5, Reb D 0.025 % w/w alone
[20] = pH 3.5, Reb D 0.032 % w/w + Reb M 0.008 % w/w

C=C1C[C@@]23CC[C@H]4[C@@](C)(CCC[C@@]4(C)C(=O)O[C@@H]4O[C@H](CO)[C@@H](O)[C@H](O)[C@H]4O[C@@H]4O[C@H](CO)[C@@H](O)[C@H](O)[C@H]4O)[C@@H]2CC[C@]1(O[C@@H]1O[C@H](CO)[C@@H](O)[C@H](O[C@@H]2O[C@H](CO)[C@@H](O)[C@H](O)[C@H]2O)[C@H]1O[C@@H]1O[C@H](CO)[C@@H](O)[C@H](O)[C@H]1O)C3 [Reb D, rebaudioside D]
Sweetness potency (relative to sucrose) [1]: 221 | degradation of low concentration sample of Reb D versus higher concentration samples ([2]; across pH 2.0 to 3.5): degraded more quickly | additional degradation of 50 ppm Reb D sample versus 80 ppm Reb D sample in combination with 320 ppm Reb M ([2]; pH 2.0): approx. 10% | % Reb D degradation 2 weeks ([2]; pH 2, Reb D 0.005 % w/w alone): 37% | % Reb D degradation 4 weeks ([2]; pH 2, Reb D 0.005 % w/w alone): 73% | % Reb D degradation 6 weeks ([2]; pH 2, Reb D 0.005 % w/w alone): 84% | % Reb D degradation 8 weeks ([2]; pH 2, Reb D 0.005 % w/w alone): 91% | % Reb D degradation 2 weeks [2, 3]: 36% | % Reb D degradation 4 weeks [2, 3]: 62% | % Reb D degradation 6 weeks [2, 3]: 76% | % Reb D degradation 8 weeks [2, 3]: 85% | % Reb D degradation 2 weeks ([2]; pH 2, Reb D 0.015 % w/w alone): 28% | % Reb D degradation 4 weeks ([2]; pH 2, Reb D 0.015 % w/w alone): 70% | % Reb D degradation 6 weeks ([2]; pH 2, Reb D 0.015 % w/w alone): 82% | % Reb D degradation 8 weeks ([2]; pH 2, Reb D 0.015 % w/w alone): 90% | % Reb D degradation 2 weeks [2, 4]: 28% | % Reb D degradation 4 weeks [2, 4]: 59% | % Reb D degradation 6 weeks [2, 4]: 72% | % Reb D degradation 8 weeks [2, 4]: 82% | % Reb D degradation 2 weeks ([2]; pH 2, Reb D 0.025 % w/w alone): 32% | % Reb D degradation 4 weeks ([2]; pH 2, Reb D 0.025 % w/w alone): 68% | % Reb D degradation 6 weeks ([2]; pH 2, Reb D 0.025 % w/w alone): 81% | % Reb D degradation 8 weeks ([2]; pH 2, Reb D 0.025 % w/w alone): 89% | % Reb D degradation 2 weeks [2, 5]: 37% | % Reb D degradation 4 weeks [2, 5]: 63% | % Reb D degradation 6 weeks [2, 5]: 78% | % Reb D degradation 8 weeks [2, 5]: 86% | % Reb D degradation 2 weeks ([2]; pH 2, Reb D 0.04 % w/w alone): 32% | % Reb D degradation 4 weeks ([2]; pH 2, Reb D 0.04 % w/w alone): 66% | % Reb D degradation 6 weeks ([2]; pH 2, Reb D 0.04 % w/w alone): 79% | % Reb D degradation 8 weeks ([2]; pH 2, Reb D 0.04 % w/w alone): 86% | degradation of Reb D samples which also contained Reb M versus Reb D samples alone (FIG. 4) ([2]; pH 2.0 and 2.5, averaged over samples): degraded less | % Reb D degradation 2 weeks [2, 6]: 11% | % Reb D degradation 4 weeks [2, 6]: 37% | % Reb D degradation 6 weeks [2, 6]: 44% | % Reb D degradation 8 weeks [2, 6]: 55% | % Reb D degradation 2 weeks [2, 7]: 8% | % Reb D degradation 4 weeks [2, 7]: 28% | % Reb D degradation 6 weeks [2, 7]: 37% | % Reb D degradation 8 weeks [2, 7]: 42% | % Reb D degradation 2 weeks [2, 8]: 10% | % Reb D degradation 4 weeks [2, 8]: 32% | % Reb D degradation 6 weeks [2, 8]: 40% | % Reb D degradation 8 weeks [2, 8]: 50% | % Reb D degradation 2 weeks [2, 9]: 7% | % Reb D degradation 4 weeks [2, 9]: 25% | % Reb D degradation 6 weeks [2, 9]: 33% | % Reb D degradation 8 weeks [2, 9]: 42% | % Reb D degradation 2 weeks [2, 10]: 8% | % Reb D degradation 4 weeks [2, 10]: 27% | % Reb D degradation 6 weeks [2, 10]: 34% | % Reb D degradation 8 weeks [2, 10]: 44% | % Reb D degradation 2 weeks [2, 11]: 5% | % Reb D degradation 4 weeks [2, 11]: 23% | % Reb D degradation 6 weeks [2, 11]: 33% | % Reb D degradation 8 weeks [2, 11]: 42% | % Reb D degradation 2 weeks ([2]; pH 2.5, Reb D 0.04 % w/w alone): 7% | % Reb D degradation 4 weeks ([2]; pH 2.5, Reb D 0.04 % w/w alone): 25% | % Reb D degradation 6 weeks ([2]; pH 2.5, Reb D 0.04 % w/w alone): 34% | % Reb D degradation 8 weeks ([2]; pH 2.5, Reb D 0.04 % w/w alone): 43% | % Reb D degradation 2 weeks ([2]; pH 3, Reb D 0.005 % w/w alone): 0% | % Reb D degradation 4 weeks ([2]; pH 3, Reb D 0.005 % w/w alone): 17% | % Reb D degradation 6 weeks ([2]; pH 3, Reb D 0.005 % w/w alone): 22% | % Reb D degradation 8 weeks ([2]; pH 3, Reb D 0.005 % w/w alone): 29% | % Reb D degradation 2 weeks [2, 12]: 1% | % Reb D degradation 4 weeks [2, 12]: 17% | % Reb D degradation 6 weeks [2, 12]: 22% | % Reb D degradation 8 weeks [2, 12]: 24% | % Reb D degradation 2 weeks ([2]; pH 3, Reb D 0.015 % w/w alone): 0% | % Reb D degradation 4 weeks ([2]; pH 3, Reb D 0.015 % w/w alone): 11% | % Reb D degradation 6 weeks ([2]; pH 3, Reb D 0.015 % w/w alone): 16% | % Reb D degradation 8 weeks ([2]; pH 3, Reb D 0.015 % w/w alone): 22% | % Reb D degradation 2 weeks [2, 13]: 0% | % Reb D degradation 4 weeks [2, 13]: 17% | % Reb D degradation 6 weeks [2, 13]: 20% | % Reb D degradation 8 weeks [2, 13]: 23% | % Reb D degradation 2 weeks ([2]; pH 3, Reb D 0.025 % w/w alone): 1% | % Reb D degradation 4 weeks ([2]; pH 3, Reb D 0.025 % w/w alone): 10% | % Reb D degradation 6 weeks ([2]; pH 3, Reb D 0.025 % w/w alone): 13% | % Reb D degradation 8 weeks ([2]; pH 3, Reb D 0.025 % w/w alone): 19% | % Reb D degradation 2 weeks [2, 14]: 1% | % Reb D degradation 4 weeks [2, 14]: 14% | % Reb D degradation 6 weeks [2, 14]: 17% | % Reb D degradation 8 weeks [2, 14]: 20% | % Reb D degradation 2 weeks ([2]; pH 3, Reb D 0.04 % w/w alone): 0% | % Reb D degradation 4 weeks ([2]; pH 3, Reb D 0.04 % w/w alone): 9% | % Reb D degradation 6 weeks ([2]; pH 3, Reb D 0.04 % w/w alone): 11% | % Reb D degradation 8 weeks ([2]; pH 3, Reb D 0.04 % w/w alone): 18% | % Reb D degradation 8 weeks ([2]; pH 3.5, Reb D 0.005 % w/w (50 ppm) alone): 20% | % Reb D degradation 2 weeks [2, 15]: 1% | % Reb D degradation 4 weeks [2, 15]: 10% | % Reb D degradation 6 weeks [2, 15]: 14% | % Reb D degradation 2 weeks [2, 16]: 0% | % Reb D degradation 4 weeks [2, 16]: 6% | % Reb D degradation 6 weeks [2, 16]: 6% | % Reb D degradation 8 weeks [2, 16]: 9% | % Reb D degradation 2 weeks [2, 17]: 0% | % Reb D degradation 4 weeks [2, 17]: 4% | % Reb D degradation 6 weeks [2, 17]: 5% | % Reb D degradation 8 weeks [2, 17]: 8% | % Reb D degradation 2 weeks [2, 18]: 0% | % Reb D degradation 4 weeks [2, 18]: 6% | % Reb D degradation 6 weeks [2, 18]: 8% | % Reb D degradation 8 weeks [2, 18]: 9% | % Reb D degradation 2 weeks [2, 19]: 0% | % Reb D degradation 4 weeks [2, 19]: 2% | % Reb D degradation 6 weeks [2, 19]: 2% | % Reb D degradation 8 weeks [2, 19]: 5% | % Reb D degradation 2 weeks [2, 20]: 1% | % Reb D degradation 4 weeks [2, 20]: 2% | % Reb D degradation 6 weeks [2, 20]: 2% | % Reb D degradation 8 weeks [2, 20]: 5% | % Reb D degradation 8 weeks ([2]; pH 3.5, Reb D 0.04 % w/w (400 ppm) alone): 5% | % Reb D degradation 2 weeks ([2]; pH 3.5, Reb D 0.04 % w/w alone): 1% | % Reb D degradation 4 weeks ([2]; pH 3.5, Reb D 0.04 % w/w alone): 1% | % Reb D degradation 6 weeks ([2]; pH 3.5, Reb D 0.04 % w/w alone): 1% | stability of Reb D combined with Reb M in a ratio of about 1:1, compared to on its own ([2]; pH range 2.0 to 2.5): most stable
